{"source": "patent US20110159507A1", "about": "“METHOD FOR DETECTING THE DRUG EFFECTS OF DNA METHYLATION-INHIBITORS” (SCHOOL JURIDICAL PERSON THE KITASATO INSTITUTE, priority 2008, published 2011)", "key": {"[1]": {"test_system": "K562 PU.1 KD cells (PU 2-10 and PU 3-10)", "assay": "cell viability assay (WST-8), percentages of dead cells after drug administration, PU.1 gene-knockdown cells vs control cells", "format": "cell-based", "settings": "for drug sensitivity of PU.1 gene-knockdown cells to the DNA methylation inhibitor: K562 PU.1 KD cells", "text": "FIGS. 1(a) and 1(b) illustrate and show the results of establishment experiments of PU.1-knockdown lines (K562 PU.1 KD cells). That is, a PU.1 siRNA expression vector (Takara, Ohtsu, Japan) and its control vector (Takara) were introduced into K562 cells as leukemia cell lines in accordance with the method described in the document (Takahashi Set al., British Journal of Haematology, 2005 (130), p 428-436). Specifically, in the method, electroporation was employed to introduce the expression vector and its control vector into leukemia cell lines (K562 cells). The introduced cells were cultured in an RPMI medium in the presence of 1 μg/mL puromycin to select cells that constitutively express PU.1 siRNAs and isolate the cells by a limiting dilution method. The isolated control cells (Control K562) (V5 and V6) and PU.1-knockdown cells (2-10 and 3-10) (K562 PU.1 KD cells) were used to prepare proteins based on a conventional method. The proteins were subjected to SDS-PAGE electrophoresis, then transferred to a membrane, and blotted with a PU.1 antibody and β-actin useful for the estimation of protein amounts (FIG. 1(a)).\nTwo kinds of PU.1 gene-knockdown cells (PU 2-10 and PU 3-10) and control cells (vec 5 and vec 6) were compared for their sensitivities to 5-azadc (AZA) (% effect: percentages of dead cells after drug administration). In other words, the respective cells were seeded in a 96-well plate at a density of 2,000 cells/well, and 5-azadc (AZA) was added into the well at concentrations of 0.2, 1, 3.9, 15.6, 62.5, 250, and 1,000 nM. Then, cell viability assays were performed after 96 hours. In the assays, 10 μL of a WST-8 reagent (Dojindo, Japan) were added to a well in which 100 μL of a cell culture medium had been loaded, culture was performed in a 5% CO2 incubator at 37° C. for 2 hours, and the absorbance is then measured using a microplate reader at a wavelength of 490 nm, to thereby measure cell viability. FIG. 7 illustrates the results in terms of percentages of dead cells (% effect)."}, "[2]": {"test_system": "K562 PU.1 OE cells (A2 and H8)", "assay": "cell viability assay (WST-8), percentages of dead cells after drug administration, PU.1 gene-overexpressing cells vs control cells", "format": "cell-based", "text": "FIGS. 3(a) and 3(b) illustrate and show the results of establishment experiments of PU.1-overexpressing cell lines (K562 PU.1 OE cells). That is, the PU.1 expression vector described in the literature was used (Inomata et al., Leukemia Research 30 (2006) p 659-664). The expression vector and its control vector pcDNA3.1 (Invitrogen, CA) were introduced into K562 cells as leukemia cell lines in accordance with the method described in literature (Takahashi S et al., British Journal of Haematology, 2005 (130), p 428-436). The introduced cells were cultured in an RPMI medium in the presence of 400 μg/mL Neomycin to select cells that constitutively express PU.1 and isolate the cells by a limiting dilution method. […]\nTwo kinds of PU.1 gene-knockdown cells (PU 2-10 and PU 3-10) and control cells (vec 5 and vec 6) were compared for their sensitivities to 5-azadc (AZA) (% effect: percentages of dead cells after drug administration). […] In the assays, 10 μL of a WST-8 reagent (Dojindo, Japan) were added to a well in which 100 μL of a cell culture medium had been loaded, culture was performed in a 5% CO2 incubator at 37° C. for 2 hours, and the absorbance is then measured using a microplate reader at a wavelength of 490 nm, to thereby measure cell viability. […]"}}, "data": [{"smiles": "Nc1ncn([C@H]2C[C@H](O)[C@@H](CO)O2)c(=O)n1", "note": "[5-azadc, 5-aza-2′-deoxycytidine]", "values": [{"measurement": "drug sensitivity of PU.1 gene-knockdown cells to the DNA methylation inhibitor", "setting": "[1]", "value": "resistant and poorly sensitive"}, {"measurement": "drug sensitivity of PU.1 gene-knockdown cells to the DNA methylation inhibitor", "setting": "[1]; listed as 5-aza-2′-deoxycytidine", "value": "resistant"}, {"measurement": "percentages of dead cells (% effect): lower than in control cells (vec 5 and vec 6) by", "setting": "[1]; PU 2-10 and PU 3-10, 0.2-1,000 nM, 96 hours, FIG. 7", "value": "about 20%"}, {"measurement": "percentages of dead cells (% effect): higher than in control cells (vec 1 and vec 2) by", "setting": "[2]; A2 and H8, same experiment as FIG. 7 (0.2-1,000 nM, 96 hours), FIG. 8", "value": "about 20%"}, {"measurement": "drug sensitivity of PU.1 gene-overexpressing cells to the DNA methylation inhibitor", "setting": "[2]; K562 PU.1 OE cells", "value": "highly sensitive"}]}, {"smiles": "Nc1ncn([C@@H]2O[C@H](CO)[C@@H](O)[C@H]2O)c(=O)n1", "note": "[5-azacytidine]", "values": [{"measurement": "drug sensitivity of PU.1 gene-knockdown cells to the DNA methylation inhibitor", "setting": "[1]", "value": "resistant"}]}]}
